Results published in PMC12615385, “A combined chemo-enzymatic treatment for the oxidation of epoxy-based carbon fiber-reinforced polymers (CFRPs)” (Frontiers in Bioengineering and Biotechnology, 2025).
Blank lines part the entries; values can stand above or below the molecule they belong to.

Key:
Conditions in all cases: 0.1 M acetate buffer pH 4, 25 °C, 30 min
[1] = tested on: ItL-03
[2] = tested on: ItL-02
[3] = tested on: ItL-01
[4] = substrate: CCn1c(=NN=c2sc3cc(S(=O)(=O)O)ccc3n2CC)sc2cc(S(=O)(=O)O)ccc21; experiment: purified protein; assay type: biochemical, Escherichia coli

Km [1]: 7.76 mM
Km [2]: 3.64 ± 0.26 mM
Km [3]: 4.5 ± 1.42 mM
Molecule: CCn1c(=NN=c2sc3cc(S(=O)(=O)O)ccc3n2CC)sc2cc(S(=O)(=O)O)ccc21 [ABTS, 2,2′-azino-bis(3-ethylbenzothiazoline-6-sulfonic acid)]

B1: CueO (Escherichia coli K-12) (protein)
chain: AERPTLPIPDLLTTDARNRIQLTIGAGQSTFGGKTATTWGYNGNLLGPAVKLQRGKAVTVDIYNQLTEETTLHWHGLEVPGEVDGGPQGIIPPGGKRSVTLNVDQPAATCWFHPHQHGKTGRQVAMGLAGLVVIEDDEILKLMLPKQWGIDDVPVIVQDKKFSADGQIDYQLDVMTAAVGWFGDTLLTNGAIYPQHAAPRGWLRLRLLNGCNARSLNFATSDNRPLYVIASDGGLLPEPVKVSELPVLMGERFEVLVEVNDNKPFDLVTLPVSQMGMAIAPFDKPHPVMRIQPIAISASGALPDTLSSLPALPSLEGLTVRKLQLSMDPMLDMMGMQMLMEKYGDQAMAGMDHSQMMGHMGHGNMNHMNHGGKFDFHHANKINGQAFDMNKPMFAAAKGQYERWVISGVGDMMLHPFHIHGTQFRILSENGKPPAAHRAGWKDTVKVEGNVSEVLVKFNHDAPKEHAYMAHCHLLEHEDTGMMLGFTV
notes: codon-optimised synthetic gene in pET21a(+), E. coli T7 Shuffle, Ni-NTA purified; 50-60 kDa
Km [4]: 2.39 ± 0.23 mM
kcat [4]: 0.0045 ± 0.0005 s⁻¹
